For experiment [1], the system named is K562. Description: Induction of apoptosis in human K562 cells assessed as late apoptotic cells at 0.03 micromol/L measured after 48 hrs by Annexin V-FITC/7-AAD staining based flow cytometric analysis (reference value: 2.49 %). It is filed as functional. Particulars: dose 0.03 µmol/L, at 0.03 µM.
Experiment [2] concerns K562. Briefly: Induction of apoptosis in human K562 cells assessed as early apoptotic cells at 0.1 micromol/L measured after 48 hrs by Annexin V-FITC/7-AAD staining based flow cytometric analysis (reference value: 4.2 %). It is filed as functional. To be noted: dose 0.1 µmol/L, at 0.1 µM.
Experiment [3] relates to K562. Description: Induction of apoptosis in human K562 cells assessed as necrotic cells at 0.1 uM measured after 72 hrs by Annexin V-FITC/7-AAD staining based flow cytometric analysis relative to control. It is filed as functional.
Experiment [4] deals with K562. Briefly: Induction of apoptosis in human K562 cells assessed as necrotic cells at 0.1 uM measured after 6 hrs by Annexin V-FITC/7-AAD staining based flow cytometric analysis relative to control. The class given is functional.
Experiment [5] in a line: Inhibition of porcine brain tubulin polymerization assessed as reduction in tubulin assembly at 37 degreeC measured after 40 mins in presence of GTP by turbidimetric analysis. Set-up: species or system Sus scrofa.
Experiment [6] concerns K562. Description: Induction of apoptosis in human K562 cells assessed as viable cells at 0.3 micromol/L measured after 48 hrs by Annexin V-FITC/7-AAD staining based flow cytometric analysis (reference value: 92.85 %). The class given is functional. Particulars: K562, 48 h, dose 0.3 µmol/L, read-out: Activity.
For experiment [7], the system named is K562. Briefly: Induction of apoptosis in human K562 cells assessed as viable cells at 0.01 micromol/L measured after 48 hrs by Annexin V-FITC/7-AAD staining based flow cytometric analysis (reference value: 92.85 %). It is filed as functional. Particulars: K562, 48 h, dose 0.01 µmol/L, read-out: Activity.
Experiment [8] has as its system K562. Briefly: Induction of apoptosis in human K562 cells assessed as late apoptotic cells at 0.1 uM measured after 24 hrs by Annexin V-FITC/7-AAD staining based flow cytometric analysis relative to control. It is filed as functional.
The subject of experiment [9] is K562. Briefly: Induction of apoptosis in human K562 cells assessed as late apoptotic cells at 0.1 uM measured after 72 hrs by Annexin V-FITC/7-AAD staining based flow cytometric analysis relative to control. The class given is functional.
Experiment [10] has as its system K562. Briefly: Induction of apoptosis in human K562 cells assessed as necrotic cells at 0.01 micromol/L measured after 48 hrs by Annexin V-FITC/7-AAD staining based flow cytometric analysis (reference value: 0.46 %). Particulars: dose 0.01 µmol/L, at 0.01 µM. It is filed as functional.
Experiment [11] deals with K562. Briefly: Induction of apoptosis in human K562 cells assessed as early apoptotic cells at 0.03 micromol/L measured after 48 hrs by Annexin V-FITC/7-AAD staining based flow cytometric analysis (reference value: 4.2 %). The class given is functional. Particulars: dose 0.03 µmol/L, at 0.03 µM.
Experiment [12] deals with K562. Description: Induction of apoptosis in human K562 cells assessed as late apoptotic cells at 0.1 uM measured after 6 hrs by Annexin V-FITC/7-AAD staining based flow cytometric analysis relative to control. It is filed as functional.
For experiment [13], the system named is K562. Briefly: Induction of apoptosis in human K562 cells assessed as viable cells at 0.1 uM measured after 72 hrs by Annexin V-FITC/7-AAD staining based flow cytometric analysis relative to control. The class given is functional. Particulars: read-out: Activity.
The subject of experiment [14] is K562. Description: Induction of apoptosis in human K562 cells assessed as necrotic cells at 0.1 micromol/L measured after 48 hrs by Annexin V-FITC/7-AAD staining based flow cytometric analysis (reference value: 0.46 %). The class given is functional. To be noted: dose 0.1 µmol/L, at 0.1 µM.

Consider `COc1cc(OC)cc(N2CCN(C(=O)n3c4ccccc4c(=O)c4ccccc43)CC2)c1`, for which the Activity was found to be 25.72% in the experiment with K562 [1]; 26.08% in the experiment on K562 [2]; 4.54% in the experiment with K562 [3]; 0.24% in the experiment on K562 [4]; 7.02% with K562 [8]; 65.69% in the experiment on K562 [9]. For the same molecule, the Activity in the experiment with K562 [10] is 0.27%; in the experiment on K562 [11], 21.52%; with K562 [12] it was 3.3%; in the experiment with K562 [14] it was 0.33%. The half-maximal inhibitory concentration (IC50) in experiment [5] came to 350 nM. Moreover, the viability at 0.3 µM with K562 [6] amounted to 42.6%. Further, the viability at 0.01 µM with K562 [7] was 88.6%. In the experiment with K562 [13], the viability at 0.1 µM was determined as 18.2%.

For the origin of these results see ChEMBL document CHEMBL4680289, “10-(4-Phenylpiperazine-1-carbonyl)acridin-9(10H)-ones and related compounds: Synthesis, antiproliferative activity and inhibition of tubulin polymerization” (Bioorg Med Chem Lett, 2021).
